Experiments:
[1] = tested on: anti-CD3/CD28-induced phosphorylation of IKKα/β; test: Phosphorylation of IKKα/β in Jurkat T cells (Western blot); type: cell-based; conditions: 20 hours pretreatment, anti-CD3/CD28 for 0-20 minutes
Experimental: The DLBCL cell lines, OCI-Ly1, OCI-Ly3, and OCI-Ly7, were provided by Dr. Mark Minden (University Health Network, Toronto, Ontario, Canada). TMD8 cells were provided by Dr. Louis Staudt (NCI, NIH). OCI-Ly1 and OCI-Ly7 cells were cultured in Iscove's Modified Dulbecco's Medium (IMDM) supplemented with 10% FBS. OCI-Ly3 cells were cultured in IMDM supplemented with 20% FBS. TMD8 and Jurkat T cells were cultured in RPMI1640 medium with 10% FBS. HEK293T cells were cultured in DMEM medium with 10% FBS. All media were supplemented with 100 U/ml penicillin streptomycin. Stimulation of Jurkat cells was conducted by adding 5 ng/ml of phorbol 12-myristatel3 acetate (PMA)(Sigma-Aldrich) and 1μM ionomycin (Calbiochem), or by adding 5-10 μL/mL of ImmunoCult Human CD3/CD28 ([…] Technologies).

OCI-Ly3 ABC-DLBCL cells = test: Cell proliferation (cell count, trypan blue exclusion), OCI-Ly3; type: cell-based; conditions: OCI-Ly3, single dose of 1 μM, 12 days
Text: Cell number was counted using the trypan blue dye exclusion method with Vi-CELL cell viability analyzer (Beckman Coulter) at days 7, 10, and 12 of treatment with compounds. Cell proliferation was specifically evaluated using the CellTrace Violet reagent (ThermoFisher Cat #C34571) which undergoes dilution with each round of cell division. 1.5×10^6 cells were washed twice in PBS and resuspended in 2 mls of PBS.

SMILES: COc1ccc(CNS(=O)(=O)c2ccc(Cc3ccc(S(=O)(=O)NCc4ccc(OC)cc4)cc3)cc2)cc1 [M1i-124d1]
- Phosphorylation of IKKα/β (phospho-IKK/total IKK) [1]: leads to inhibition
- Proliferation (OCI-Ly3 ABC-DLBCL cells): inhibit the proliferation

— patent publication US20240124410A1, “SMALL MOLECULES AND THEIR USE AS MALT1 INHIBITORS” (University of Pittsburgh - Of the Commonwealth System of …, priority 2021, published 2024)
